# Counter-ions that a name gives are not always drawn. Like-named read-outs stand apart in the source and are kept apart here.
# Legend:
# human skin = conditions: for Skin Blanch Response: human arm skin
# [1] = test system: radiation-induced oral mucositis; conditions: for Muscositis Severity Score: score 0-17, day 16
# Experimental: In an assay based upon Alvarez eta/. […] Additional topical formulation was applied with Q-tip to uniformly cover the everted, interior surface of the cheek pouch. After 20 min, the vehicle-coated, immobilized cheek pouch was taped into position over a 1.5 cm diameter window bored through a 2.5 cm thick lead plate. The sleeping hamster was immobilized on a small shelf on the plate that enabled cheek pouch irradiation through the window.
# After irradiation, the cheek pouch was rinsed with water, blotted and reverted. The severity of mucositis in the irradiated cheek pouch was scored 16 days later using the following criteria.
# cheek pouch oral mucosa = assay: Blanch response of hamster cheek pouch oral mucosa, Example 15; format: in vivo, Syrian Golden hamster; conditions: 10 mM in 5:1:94 ethanol:HPMC:PBS, after 30 min
# Experimental: Hamsters were anesthetized with sodium pentobarbital, the cheek pouch was everted with forceps, rinsed with water and blotted, and immobilized on a 2 cm diameter inert plastic disk using stainless steel clips (see panels in FIG. 11). […] Digital images were recorded.
# [2] = test system: radiation-induced dermatitis of rat skin; conditions: for Radiation Dermatitis Score (% of Irradiated 4.5 cm^2 Area Free of Scab material): rat, 8.7 Gy γ, scored 13 days later
# [3] = test system: radiation-induced or Cytoxan-induced alopecia; conditions: neonate rat, day 20 of life
# Source text: The severity of the alopecia was scored nine days later—on day 20 of life.
# [4] = test system: chemotherapy-induced alopecia; conditions: 950 mM topical four times in two hr, 10 day old rat pups, Cytoxan 30 μg/gm b.w. i.p.
# adrenergic receptor = conditions: cited from earlier work
# dermal vasculature = assay: Exclusion of systemic dye from rat skin (colorimeter), Example 18; format: in vivo; conditions: 300 mM in 50:30:20 vehicle, 30 min time point
# Experimental: 400 μl of a black dye solution was injected into each test rat as an i.p. bolus at 10 min after topical treatment with either 300 mM norepinephrine or vehicle alone. Colorimeter measurements of skin color in patches were made and the progression was recorded from 0 through 30 min. The change in colorimeter units between the 0 min reading and readings at indicated time points are plotted in FIG. 15. Colorimeter measurements of skin color were made using a CR-400 colorimeter (Minolta Corp.).
# [5] = Sustained solubility of norepinephrine tartrate in ethanol:PG:water mixtures, Example 7; format: physicochemical; conditions: 600 mM
# Experimental: Solvent composed of ethanol:propylene glycol (PG):water in the percentages (vol:vol:vol)·specified in FIG. 3 was then added to each vial. Vials were heated as necessary to dissolve norepinephrine by touching vials to a boiling water bath for one second increments and then vortexing until clear. Sealed vials were left at room temperature for 24 hours, and at 4° C. for 24 hours. During the two 24 hour incubations, liquid in each vial was examined using a magnifying glass to identify the formation of any crystalline material. If crystals formed, norepinephrine was noted as “insoluble” at that solvent mixture.
# [6] = test system: radiodermatitis of rat skin; assay: Radiodermatitis prevention after 27 Gy 6 MeV electron beam irradiation of rat skin, Example 14; format: in vivo; conditions: 300 mM topical
# Experimental: Adult rats ([…]) were clipped to remove the coat covering their dorsal backs. Aliquots (100 μl) of topical drug formulation containing 300 mM norepinephrine were applied once to the backs of the rats, and at set time points afterward, a rectangle (1.5 cm×3 cm) within the topical treatment field received a 27 Gy dose of 6 MeV electrons from a linear accelerator. Animals were anesthetized with 30 μg/gm b.w. sodium pentobarbital prior to irradiation. Following irradiation, rats were returned to cages, and 13 days later the severity of radiodermatitis within the irradiated rectangular field was visually scored and photographed. A “Radiodermatitis Severity Score” between 0 and 100 represents the percentage of the irradiated field that is covered by scab material on day 13 following irradiation.
# rat skin = assay: Penetration of topically applied dye into rat skin; format: in vivo; conditions: applied to rat skin in an alcohol:water solution
# Source text: It is preferred for certain embodiments of the invention directed to skin applications to optimize ethanol, propylene glycol, and water percentages to enable sufficient delivery of epinephrine, phenylephrine, norepinephrine, or methoxamine to the skin vasculature, to achieve transient, vasculature constriction, and by so-doing, confer protection to the stem cells of the epidermis and hair follicle. The primary skin vasculature is located within the dermis, largely creating a vascular web surrounding the hair follicle bulbs (shown in FIG. 1). Topical drug delivery to this vasculature is primarily achieved by “transfolicular” delivery, i.e., topically-applied alcohol:water solutions travel within the hair shaft channels to the hair follicle bulb, and then diffuse through the stem cells that comprise the hair follicle bulb to access the dermal vasculature surrounding the bulb. For topical solutions to access dermal vasculature, a minimum percentage of alcohol in the topical delivery vehicle is preferred to enable: i) dissolution or softening of sebaceous oil present in human hair shaft channels, and ii) penetration of the oil-stratum corneum matrix.
structure (smiles),measurement,setting,value
"CNC[C@H](O)c1ccc(O)c(O)c1 [epinephrine, epinephrine-HCl]",Skin Blanch Response,"human skin; 2 mM in 50:25:25 ethanol:propylene glycol:water, 45 min",10%
same,Skin Blanch Response,"human skin; 2 mM in 50:25:25 ethanol:propylene glycol:water, 60 min",40%
same,Skin Blanch Response,"human skin; 2 mM in 50:25:25 ethanol:propylene glycol:water, 150 min",75%
same,Skin Blanch Response,"human skin; 10 mM in 50:25:25 ethanol:propylene glycol:water, 45 min",40%
same,Skin Blanch Response,"human skin; 10 mM in 50:25:25 ethanol:propylene glycol:water, 60 min",60%
same,Skin Blanch Response,"human skin; 10 mM in 50:25:25 ethanol:propylene glycol:water, 150 min",90%
same,Skin Blanch Response,"human skin; 50 mM in 50:25:25 ethanol:propylene glycol:water, 45 min",30%
same,Skin Blanch Response,"human skin; 50 mM in 50:25:25 ethanol:propylene glycol:water, 60 min",50%
same,Skin Blanch Response,"human skin; 50 mM in 50:25:25 ethanol:propylene glycol:water, 150 min",85%
same,Skin Blanch Response,"human skin; 0.1% (4.55 mM) in water, 45 min",0%
same,Skin Blanch Response,"human skin; 0.1% (4.55 mM) in water, 60 min",0%
same,Skin Blanch Response,"human skin; 0.1% (4.55 mM) in water, 150 min",0%
same,Skin Blanch Response,"human skin; 0.1% (4.55 mM) in water, 180 min",0%
same,blanching of the skin,"human skin; 0.1% aqueous solution, human skin, over the 180 min observation period",no detectable blanching
same,Skin Blanch Response,"human skin; 100 mM in 50:25:25 ethanol:propylene glycol:water, 45 min",85%
same,Skin Blanch Response,"human skin; 100 mM in 50:25:25 ethanol:propylene glycol:water, 60 min",90%
same,Skin Blanch Response,"human skin; 100 mM in 50:25:25 ethanol:propylene glycol:water, 150 min",90%
same,Skin Blanch Response,"human skin; 1000 mM in 50:25:25 ethanol:propylene glycol:water, 45 min",85%
same,Skin Blanch Response,"human skin; 1000 mM in 50:25:25 ethanol:propylene glycol:water, 60 min",90%
same,Skin Blanch Response,"human skin; 1000 mM in 50:25:25 ethanol:propylene glycol:water, 150 min",95%
same,Muscositis Severity Score,"[1]; 0.05 mM, vehicle 5:5:3:87 ethanol:propylene glycol:HPMC:PBS, irradiation 20 min, Experiment C",7.5
same,Muscositis Severity Score,"[1]; 0.10 mM, vehicle 5:5:3:87, irradiation 20 min, Experiment C",5.0
same,Muscositis Severity Score,"[1]; 0.20 mM, vehicle 5:5:3:87, irradiation 20 min, Experiment C",3.0
same,Muscositis Severity Score,"[1]; 0.40 mM, vehicle 5:5:3:87, irradiation 20 min, Experiment C",0
same,Muscositis Severity Score,"[1]; 13.5 mM epinephrine + 12.3 mM epinephrine, vehicle 0:5:3:92, irradiation 24 min, Experiment B",11.7 ± 0.7
same,Muscositis Severity Score,"[1]; 100.00 mM, vehicle 5:0:1:94, irradiation 24 min, Experiment A",14.5 ± 2.4
same,Muscositis Severity Score,"[1]; 500.00 mM, vehicle 5:0:1:94, irradiation 24 min, Experiment A",9.0
same,lowest topical concentration with discernible radioprotection of a mucosal site,[1]; hamster cheek pouch,50 µM
same,appearance of cheek pouch (blanch),cheek pouch oral mucosa,white and translucent
same,Radiation Dermatitis Score (% of Irradiated 4.5 cm^2 Area Free of Scab material),"[2]; 20 mM, vehicle 50:30:20, four topical applications",32%
same,Radiation Dermatitis Score (% of Irradiated 4.5 cm^2 Area Free of Scab material),"[2]; 300 mM, vehicle 25:30:45, four topical applications",95%
same,Radiation Dermatitis Score (% of Irradiated 4.5 cm^2 Area Free of Scab material),"[2]; 1000 mM, vehicle 50:30:20, four topical applications",100%
same,concentration applied to skin required to confer protection against radiation dermatitis,[2]; rat skin,> 20 mM
same,Alopecia Score (% Normal Coat Density in Topical Treatment Area),"[3]; 20 mM, vehicle 50:25:25, Irradiation 7.5 Gy whole-body",6%
same,Alopecia Score (% Normal Coat Density in Topical Treatment Area),"[3]; 100 mM, vehicle 50:25:25, Irradiation 7.5 Gy whole-body",33%
same,Alopecia Score (% Normal Coat Density in Topical Treatment Area),"[3]; 500 mM, vehicle 50:25:25, Irradiation 7.5 Gy whole-body",45%
same,Alopecia Score (% Normal Coat Density in Topical Treatment Area),"[3]; 1000 mM, vehicle 0:100:0, Irradiation 7.5 Gy whole-body",95%
same,Alopecia Score (% Normal Coat Density in Topical Treatment Area),"[3]; 1000 mM, vehicle 25:30:45, Cytoxan 32 μ/gm b.w. i.p.",40%
same,Alopecia Score (% Normal Coat Density in Topical Treatment Area),"[3]; 1000 mM, vehicle 25:30:45 ethanol:propylene glycol:water, alopecia-inducing agent None",100%
same,Alopecia Score (% Normal Coat Density in Topical Treatment Area),"[3]; 1000 mM, vehicle 50:25:25, Irradiation 7.5 Gy whole-body",94%
same,coat protection on day 20,[4],partial coat protection
NC[C@H](O)c1ccc(O)c(O)c1 [norepinephrine],agonism of the β2 receptor,adrenergic receptor,not an agonist of the β2 receptor
same,binding affinity (potency) for the α1 adrenergic receptor,adrenergic receptor,slightly better than for epinephrine
same,"reduction of delivery of systemic, blood-borne dye to treated skin",dermal vasculature,39%
same,solubility (no crystals over 24 hr room temperature and 24 hr 4° C.),[5]; 55:20:25 ethanol:PG:water,not soluble
same,solubility (no crystals over 24 hr room temperature and 24 hr 4° C.),[5]; around 50:30:20 ethanol:PG:water,areas of solubility
same,solubility (no crystals over 24 hr room temperature and 24 hr 4° C.),[5]; around 60:10:30 ethanol:PG:water,areas of solubility
same,protection against Grade 2 dermatitis,[6],complete protection
CCN(CC)c1ccc2nc3c4ccccc4c(=O)cc-3oc2c1 [Nile Red],skin penetration,rat skin,penetrates both the stratum corneum and underlying epidermis

# — patent US11197836B2, “Topical vasoconstrictor preparations and methods for protecting cells during cancer chemotherapy and radiotherapy” (WISCONSIN ALUMNI RESEARCH FOUNDATION, priority 2005, dated 2021)
